Measured values taken from ChEMBL document CHEMBL3526079, “Glutaredoxin is involved in the formation of the pharmacologically active metabolite of clopidogrel from its GSH conjugate” (Drug Metab Dispos, 2012).

Tests used:
[1] = Activity of human recombinant glutaredoxin assessed as intrinsic clearance of enzyme-mediated (E)-2-(1-((S)-1-(2-chlorophenyl)-2-methoxy-2-oxoethyl)-4-mercaptopiperidin-3-ylidene)acetic acid formation per pmol of protein; assay type: ADME
[2] = Activity of human recombinant glutaredoxin assessed as enzyme-mediated (E)-2-(1-((S)-1-(2-chlorophenyl)-2-methoxy-2-oxoethyl)-4-mercaptopiperidin-3-ylidene)acetic acid formation at 1 uM for 2.5 mins by LC-MS/MS analysis in presence of 5 mM GSH and 19 to 300 ug/ml anti-human glutaredoxin antibody; assay type: ADME
[3] = Activity of human recombinant glutaredoxin assessed as enzyme-mediated (E)-2-(1-((S)-1-(2-chlorophenyl)-2-methoxy-2-oxoethyl)-4-mercaptopiperidin-3-ylidene)acetic acid formation; assay type: ADME
[4] = test system: Liver microsome; assay: Drug metabolism in human liver microsome assessed as (E)-2-(1-((S)-1-(2-chlorophenyl)-2-methoxy-2-oxoethyl)-4-mercaptopiperidin-3-ylidene)acetic acid formation at 1 uM for 2.5 mins by LC-MS/MS analysis in presence of 5 mM GSH and 19 to 300 ug/ml anti-human glutaredoxin antibody; assay type: ADME; conditions: microsomes
[5] = test system: Liver cytosol; assay: Drug metabolism in human liver cytosol assessed as (E)-2-(1-((S)-1-(2-chlorophenyl)-2-methoxy-2-oxoethyl)-4-mercaptopiperidin-3-ylidene)acetic acid formation at 1 uM for 2.5 mins by LC-MS/MS analysis in presence of 5 mM GSH and 19 to 300 ug/ml anti-human glutaredoxin antibody; assay type: ADME
[6] = Activity of human recombinant glutaredoxin assessed as enzyme-mediated (E)-2-(1-((S)-1-(2-chlorophenyl)-2-methoxy-2-oxoethyl)-4-mercaptopiperidin-3-ylidene)acetic acid formation per ug of protein; assay type: ADME
[7] = test system: Liver microsome; assay: Drug level in human liver microsome assessed as compound formation treated with R-115991 at 5 uM by LC-MS/MS analysis in presence of 5 mM GSH; assay type: ADME; conditions: microsomes
[8] = Activity of human recombinant glutaredoxin assessed as intrinsic clearance of enzyme-mediated (E)-2-(1-((S)-1-(2-chlorophenyl)-2-methoxy-2-oxoethyl)-4-mercaptopiperidin-3-ylidene)acetic acid formation per ug of protein; assay type: ADME
[9] = test system: Liver cytosol; assay: Drug level in human liver cytosol assessed as compound formation rate measured per mg of protein treated with 1 uM R-361015-SG for 2.5 mins by LC-MS/MS analysis in presence of 5 mM GSH; assay type: ADME, tissue-based
[10] = test system: Liver microsome; assay: Drug level in human liver microsome assessed as compound formation rate measured per mg of protein treated with 1 uM R-361015-SG for 2.5 mins by LC-MS/MS analysis in presence of 5 mM GSH; assay type: ADME; conditions: microsomes
[11] = Activity of human recombinant glutaredoxin assessed as enzyme-mediated compound formation rate measured per ug of enzyme at 1 uM for 2.5 mins by LC-MS/MS analysis in presence of 5 mM GSH; assay type: ADME
[12] = test system: Liver microsome; assay: (§1) Drug metabolism in human liver microsome assessed as (2S)-2-amino-5-((2R)-1-(carboxymethylamino)-3-(((E)-3-(carboxymethylene)-1-((S)-1-(2-chlorophenyl)-2-methoxy-2-oxoethyl)piperidin-4-yl)disulfanyl)-1-oxopropan-2-ylamino)-5-oxopentanoic acid formation at 5 uM by LC-MS/MS analysis in presence of 5 mM GSH; assay type: ADME; conditions: microsomes
[13] = test system: Liver microsome; assay: Drug metabolism in human liver microsome assessed as (E)-2-(1-((S)-1-(2-chlorophenyl)-2-methoxy-2-oxoethyl)-4-mercaptopiperidin-3-ylidene)acetic acid formation at 5 uM by LC-MS/MS analysis in presence of 5 mM GSH; assay type: ADME; conditions: microsomes
[14] = test system: Liver microsome; assay: as §1, with “GSH and 1 mg/ml human liver cytosol” for “GSH”; assay type: ADME; conditions: microsomes

CL [1] [µL/min] | Drug metabolism [2] | Km [3] [µM] | Drug metabolism [4] | Drug metabolism [5] | Vmax [6] [pmol/min] | Drug metabolism [7] | clearance [8] [µL/min/µg] | Drug metabolism [9] [pmol/min] | Drug metabolism [10] [pmol/min] | Drug metabolism [11] [pmol/min] | Drug metabolism [12] | Drug metabolism [13] | Drug metabolism [14] | SMILES
0.1548 | metabolite_not_detected | 30 | metabolite_not_detected | metabolite_not_detected | 381.6 | metabolite_detected | 12.9 |  |  |  |  |  |  | COC(=O)[C@H](c1ccccc1Cl)N1CCC(SSC[C@H](NC(=O)CC[C@H](N)C(=O)O)C(=O)NCC(=O)O)/C(=C/C(=O)O)C1 (stereo not given in full)
 |  |  |  |  |  | metabolite_detected |  | 2843 | 508 | 130 |  |  |  | COC(=O)[C@H](c1ccccc1Cl)N1CCC(S)/C(=C/C(=O)O)C1 (stereo not given in full)
 |  |  |  |  |  |  |  |  |  |  | metabolite_detected | metabolite_detected | metabolite_not_detected | COC(=O)[C@H](c1ccccc1Cl)N1CCC2SC(=O)C=C2C1 (stereo not given in full) [CLOPIDOGREL THIOLACTONE]
